Columns and labels:
[1] = biological target: T1, wild-type LRKK2 (Mus musculus, UniProt Q5S006); test: LRRK2 immunoblot, phosphorylation of Ser935, NIH-3T3 cell lysates; assay type: cell-based; details: FIG. 1
T1 construct: endogenous in cells; host or cells: NIH-3T3
Protocol: Cell lysates were extracted from the NIH-3T3 cell pellet using lysis buffer (40 mM Tris-HCl pH 8.0, 120 mM NaCl, 0.10% Nonidet™-P40) supplemented with protease inhibitors. Proteins in whole-cell lysates were separated by SDS-PAGE and transferred to an Amersham™ nitrocellulose membrane (Amersham, UK). Nitrocellulose membranes were blocked with 5% skim milk in phosphate-buffered saline containing Tween 20 and incubated with primary antibodies overnight at 4° C. The blots were then incubated with the appropriate horseradish peroxidase (HRP)-conjugated secondary antibodies and proteins were visualized by enhanced chemiluminescence, according to the manufacturer's protocol (Amersham™ Western blotting). Secondary antibodies, anti-rabbit IgG-HRP were purchased from Cell Signaling technology. Immunoblot film were scanned on a LAS500 scanner, and images were managed with Adobe Photoshop

[2] = biological target: human LRRK2 kinase (Homo sapiens, UniProt Q5S007); details: LRRK2, ADP-Glo, ATP 10 μM, 60 minutes at 25° C.
Chain of human LRRK2 kinase (Q5S007 whole entry): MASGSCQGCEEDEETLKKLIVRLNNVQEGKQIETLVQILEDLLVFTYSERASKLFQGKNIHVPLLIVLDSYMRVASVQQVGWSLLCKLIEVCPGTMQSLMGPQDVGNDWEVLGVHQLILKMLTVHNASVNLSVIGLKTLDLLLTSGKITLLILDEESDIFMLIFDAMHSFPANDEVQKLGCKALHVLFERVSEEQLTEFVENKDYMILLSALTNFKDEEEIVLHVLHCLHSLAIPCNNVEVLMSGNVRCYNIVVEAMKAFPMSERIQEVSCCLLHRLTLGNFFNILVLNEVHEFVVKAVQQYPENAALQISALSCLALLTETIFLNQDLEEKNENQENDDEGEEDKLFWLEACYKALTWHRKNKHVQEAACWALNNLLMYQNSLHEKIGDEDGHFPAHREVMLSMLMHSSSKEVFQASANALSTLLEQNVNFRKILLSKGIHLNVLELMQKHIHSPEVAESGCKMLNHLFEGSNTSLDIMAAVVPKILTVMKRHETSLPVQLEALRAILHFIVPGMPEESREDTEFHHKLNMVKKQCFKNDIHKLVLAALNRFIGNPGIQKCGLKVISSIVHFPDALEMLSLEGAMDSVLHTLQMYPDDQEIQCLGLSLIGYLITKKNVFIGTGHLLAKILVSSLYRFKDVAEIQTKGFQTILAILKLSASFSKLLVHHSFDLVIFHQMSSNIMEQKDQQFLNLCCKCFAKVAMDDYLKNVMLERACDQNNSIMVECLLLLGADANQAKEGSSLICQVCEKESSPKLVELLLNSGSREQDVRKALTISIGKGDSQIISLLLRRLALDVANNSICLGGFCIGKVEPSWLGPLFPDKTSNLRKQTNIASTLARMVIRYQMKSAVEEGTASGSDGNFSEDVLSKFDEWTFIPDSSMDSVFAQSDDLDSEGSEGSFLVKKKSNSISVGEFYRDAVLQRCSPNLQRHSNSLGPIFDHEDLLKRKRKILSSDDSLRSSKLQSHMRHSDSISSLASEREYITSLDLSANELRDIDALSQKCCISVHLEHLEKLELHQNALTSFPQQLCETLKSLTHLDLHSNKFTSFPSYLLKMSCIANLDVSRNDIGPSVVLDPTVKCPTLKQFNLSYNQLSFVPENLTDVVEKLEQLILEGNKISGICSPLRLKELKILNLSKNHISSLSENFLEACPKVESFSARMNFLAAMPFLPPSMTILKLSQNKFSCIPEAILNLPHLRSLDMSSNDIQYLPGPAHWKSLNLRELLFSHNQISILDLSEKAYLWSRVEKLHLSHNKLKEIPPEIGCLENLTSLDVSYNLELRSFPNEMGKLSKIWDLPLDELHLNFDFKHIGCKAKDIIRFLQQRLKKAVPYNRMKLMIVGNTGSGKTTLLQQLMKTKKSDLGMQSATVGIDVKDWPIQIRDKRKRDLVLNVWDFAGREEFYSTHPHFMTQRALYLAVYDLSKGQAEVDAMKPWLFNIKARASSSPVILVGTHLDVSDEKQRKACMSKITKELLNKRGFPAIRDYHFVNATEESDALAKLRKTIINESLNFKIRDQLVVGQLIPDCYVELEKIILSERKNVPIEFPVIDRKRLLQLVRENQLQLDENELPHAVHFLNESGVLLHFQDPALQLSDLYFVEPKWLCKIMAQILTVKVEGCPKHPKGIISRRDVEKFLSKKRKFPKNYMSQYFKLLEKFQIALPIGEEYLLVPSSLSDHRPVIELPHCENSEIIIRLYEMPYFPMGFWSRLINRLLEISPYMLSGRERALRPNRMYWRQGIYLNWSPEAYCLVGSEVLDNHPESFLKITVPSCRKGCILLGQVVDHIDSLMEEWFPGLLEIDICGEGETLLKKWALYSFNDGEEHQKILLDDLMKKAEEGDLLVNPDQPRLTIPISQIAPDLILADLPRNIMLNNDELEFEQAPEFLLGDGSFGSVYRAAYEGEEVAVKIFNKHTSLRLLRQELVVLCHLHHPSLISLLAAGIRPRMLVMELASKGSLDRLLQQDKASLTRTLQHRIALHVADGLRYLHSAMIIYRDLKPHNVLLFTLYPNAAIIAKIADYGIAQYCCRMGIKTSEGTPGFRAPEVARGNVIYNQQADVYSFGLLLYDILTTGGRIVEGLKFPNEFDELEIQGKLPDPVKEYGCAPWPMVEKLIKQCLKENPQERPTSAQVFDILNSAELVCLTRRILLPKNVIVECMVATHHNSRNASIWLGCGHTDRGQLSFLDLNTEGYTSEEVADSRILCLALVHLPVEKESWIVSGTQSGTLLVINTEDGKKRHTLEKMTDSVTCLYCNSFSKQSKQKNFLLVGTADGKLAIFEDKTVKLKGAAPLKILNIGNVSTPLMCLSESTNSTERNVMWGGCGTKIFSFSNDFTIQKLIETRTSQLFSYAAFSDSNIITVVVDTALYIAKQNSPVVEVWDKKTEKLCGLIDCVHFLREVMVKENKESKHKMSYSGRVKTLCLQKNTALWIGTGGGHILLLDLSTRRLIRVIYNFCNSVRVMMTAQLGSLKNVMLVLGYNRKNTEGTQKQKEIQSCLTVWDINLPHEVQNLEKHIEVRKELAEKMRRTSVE

T1 sequence (Q5S006 whole entry): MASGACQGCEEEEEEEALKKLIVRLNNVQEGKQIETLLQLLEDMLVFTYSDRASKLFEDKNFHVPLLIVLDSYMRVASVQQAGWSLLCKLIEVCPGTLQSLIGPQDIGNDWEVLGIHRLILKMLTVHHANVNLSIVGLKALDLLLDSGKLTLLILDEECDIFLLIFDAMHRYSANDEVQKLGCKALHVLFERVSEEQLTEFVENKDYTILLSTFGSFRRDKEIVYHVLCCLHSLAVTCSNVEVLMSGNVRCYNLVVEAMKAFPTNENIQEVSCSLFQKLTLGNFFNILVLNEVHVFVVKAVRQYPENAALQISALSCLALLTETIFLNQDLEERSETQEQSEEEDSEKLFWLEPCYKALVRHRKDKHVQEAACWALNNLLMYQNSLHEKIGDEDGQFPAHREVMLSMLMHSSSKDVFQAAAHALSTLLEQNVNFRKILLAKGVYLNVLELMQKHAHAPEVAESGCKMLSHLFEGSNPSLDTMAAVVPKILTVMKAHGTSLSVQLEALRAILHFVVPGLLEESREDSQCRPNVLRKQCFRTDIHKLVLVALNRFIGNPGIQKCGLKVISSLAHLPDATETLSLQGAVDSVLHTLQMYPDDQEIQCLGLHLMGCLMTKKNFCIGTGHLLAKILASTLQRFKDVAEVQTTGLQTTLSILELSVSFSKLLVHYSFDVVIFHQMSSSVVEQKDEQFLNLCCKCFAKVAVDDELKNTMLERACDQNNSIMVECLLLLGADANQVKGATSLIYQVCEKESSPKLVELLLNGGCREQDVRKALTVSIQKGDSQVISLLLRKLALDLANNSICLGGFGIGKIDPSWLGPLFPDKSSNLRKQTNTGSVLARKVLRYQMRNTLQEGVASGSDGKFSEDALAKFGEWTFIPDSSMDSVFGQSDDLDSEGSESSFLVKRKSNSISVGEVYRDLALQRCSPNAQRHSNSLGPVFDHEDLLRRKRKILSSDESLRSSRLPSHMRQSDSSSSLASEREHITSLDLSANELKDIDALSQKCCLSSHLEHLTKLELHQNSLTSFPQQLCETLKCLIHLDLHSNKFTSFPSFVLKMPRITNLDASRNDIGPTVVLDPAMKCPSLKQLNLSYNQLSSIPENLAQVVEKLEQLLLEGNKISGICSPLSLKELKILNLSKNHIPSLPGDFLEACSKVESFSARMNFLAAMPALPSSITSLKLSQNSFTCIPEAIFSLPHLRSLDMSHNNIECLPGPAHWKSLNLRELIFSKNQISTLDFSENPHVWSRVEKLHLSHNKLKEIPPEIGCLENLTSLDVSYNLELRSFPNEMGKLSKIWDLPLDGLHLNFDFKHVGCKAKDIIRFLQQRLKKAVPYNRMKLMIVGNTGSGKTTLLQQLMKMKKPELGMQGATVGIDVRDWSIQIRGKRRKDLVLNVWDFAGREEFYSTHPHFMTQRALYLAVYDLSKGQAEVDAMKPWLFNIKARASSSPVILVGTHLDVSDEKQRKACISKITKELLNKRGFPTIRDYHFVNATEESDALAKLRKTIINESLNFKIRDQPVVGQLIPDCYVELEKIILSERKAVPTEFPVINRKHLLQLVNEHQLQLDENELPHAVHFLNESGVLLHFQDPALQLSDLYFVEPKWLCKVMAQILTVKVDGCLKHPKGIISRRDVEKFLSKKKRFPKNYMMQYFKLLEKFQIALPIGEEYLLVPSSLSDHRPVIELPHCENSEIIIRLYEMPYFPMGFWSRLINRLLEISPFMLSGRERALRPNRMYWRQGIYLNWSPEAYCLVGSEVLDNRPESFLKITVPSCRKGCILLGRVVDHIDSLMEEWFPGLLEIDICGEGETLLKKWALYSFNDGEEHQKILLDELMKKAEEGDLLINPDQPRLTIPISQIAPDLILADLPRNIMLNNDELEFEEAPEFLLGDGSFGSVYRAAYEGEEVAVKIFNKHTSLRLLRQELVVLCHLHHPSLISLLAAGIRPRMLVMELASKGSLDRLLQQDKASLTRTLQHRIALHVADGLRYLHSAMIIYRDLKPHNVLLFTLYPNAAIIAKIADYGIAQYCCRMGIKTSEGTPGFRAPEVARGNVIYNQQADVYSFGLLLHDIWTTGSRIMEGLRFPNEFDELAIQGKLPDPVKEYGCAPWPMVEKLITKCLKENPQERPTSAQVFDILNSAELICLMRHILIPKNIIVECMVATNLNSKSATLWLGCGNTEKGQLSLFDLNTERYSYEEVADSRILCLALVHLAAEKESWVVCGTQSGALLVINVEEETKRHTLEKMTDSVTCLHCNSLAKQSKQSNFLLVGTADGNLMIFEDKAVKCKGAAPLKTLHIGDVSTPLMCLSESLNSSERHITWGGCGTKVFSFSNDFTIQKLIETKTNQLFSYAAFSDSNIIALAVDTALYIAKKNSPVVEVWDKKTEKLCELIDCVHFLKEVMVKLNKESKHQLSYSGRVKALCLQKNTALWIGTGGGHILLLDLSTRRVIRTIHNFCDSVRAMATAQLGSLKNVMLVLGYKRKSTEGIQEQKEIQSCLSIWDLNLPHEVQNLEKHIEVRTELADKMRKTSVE

| Compound | inhibition of the phosphorylation of Ser935 in wild-type LRKK2 [1] | IC50 [2] [nM] |
| --- | --- | --- |
| CCCNc1nc(Nc2ccc(C(=O)N3CCC(N4CCOCC4)CC3)c3c2OCCO3)nc2[nH]cc(Cl)c12 [Compound 2, (8-((5-chloro-4-(propylamino)-7H-pyrrolo[2,3-d]pyrimidin-2-yl)amino)-2,3-dihydrobenzo[b][1,4]dioxin-5-yl)(4-morpholinopiperidin-1-yl)methanone] | inhibited the phosphorylation of Ser935 in wild-type LRKK2 with potency similar to known LRRK2 inhibitor LRRK2-IN-1 | < 10 |
| CCCNc1nc(Nc2ccc(S(=O)(=O)N3CCC(N4CCOCC4)CC3)cc2OC)nc2[nH]cc(Cl)c12 [Compound 19, 5-chloro-N2-(2-methoxy-4-((4-morpholinopiperidin-1-yl)sulfonyl)phenyl)-N4-propyl-7H-pyrrolo[2,3-d]pyrimidine-2,4-diamine] | inhibited the phosphorylation of Ser935 in wild-type LRKK2 with potency similar to known LRRK2 inhibitor LRRK2-IN-1 | 100 to 1000 |
| COc1cc(C(=O)N2CCC(N3CCN(C)CC3)CC2)ccc1Nc1ncc2c(n1)N(C)c1ccccc1C(=O)N2C [LRRK2-IN-1, reference compound] | inhibition of the phosphorylation of Ser935 |  |
| CCNc1nc(Nc2ccc(C(=O)N3CCC(N4CCOCC4)CC3)c3c2OCC3)nc2[nH]cc(Cl)c12 [Compound 105, (7-((5-chloro-4-(ethylamino)-7H-pyrrolo[2,3-d]pyrimidin-2-yl)amino)-2,3-dihydrobenzofuran-4-yl)(4-morpholinopiperidin-1-yl)methanone] |  | < 10 |
| CNc1nc(Nc2ccc(P3(=O)CCN(C4CC4)CC3)cc2OC)nc2[nH]cc(Cl)c12 [Compound 85, 4-(4-((5-chloro-4-(methylamino)-7H-pyrrolo[2,3-d]pyrimidin-2-yl)amino)-3-methoxyphenyl)-1-cyclopropyl-1,4-azaphosphinane 4-oxide] |  | 10 to 100 |
| COc1cc(S(=O)(=O)N2CCOCC2)ccc1Nc1nc(NC2CCCC2)c2c(Cl)c[nH]c2n1 [Compound 55, 5-chloro-N4-cyclopentyl-N2-(2-methoxy-4-(morpholinosulfonyl)phenyl)-7H-pyrrolo[2,3-d]pyrimidine-2,4-diamine] |  | 100 to 1000 |
| COc1cc(S(=O)(=O)N2CCOCC2)ccc1Nc1nc(NC2CCC2)c2c(Cl)c[nH]c2n1 [Compound 7, 5-chloro-N4-cyclobutyl-N2-(2-methoxy-4-(morpholinosulfonyl)phenyl)-7H-pyrrolo[2,3-d]pyrimidine-2,4-diamine] |  | 100 to 1000 |
| O=C(c1ccc(Nc2nc(NC3CCC3)c3c(Cl)c[nH]c3n2)c2c1OCCO2)N1CCC(N2CCOCC2)CC1 [Compound 4, (8-((5-chloro-4-(cyclobutylamino)-7H-pyrrolo[2,3-d]pyrimidin-2-yl)amino)-2,3-dihydrobenzo[b][1,4]dioxin-5-yl)(4-morpholinopiperidin-1-yl)methanone] |  | < 10 |
| COc1cc(P2(=O)CCN(C(C)=O)CC2)ccc1Nc1nc(NC2CCC2)c2c(Cl)c[nH]c2n1 [Compound 92] |  | 10 to 100 |
| COc1cc(S(C)(=O)=O)ccc1Nc1nc(NC2CCCCC2)c2c(Cl)c[nH]c2n1 [Compound 59, 5-chloro-N4-cyclohexyl-N2-(2-methoxy-4-(methylsulfonyl)phenyl)-7H-pyrrolo[2,3-d]pyrimidine-2,4-diamine] |  | 100 to 1000 |
| CCCNc1nc(Nc2ccc(C(=O)N3CCOCC3)c3c2OCCO3)nc2[nH]cc(Cl)c12 [Compound 20, (8-((5-chloro-4-(propylamino)-7H-pyrrolo[2,3-d]pyrimidin-2-yl)amino)-2,3-dihydrobenzo[b][1,4]dioxin-5-yl)(morpholino)methanone] |  | 10 to 100 |
| CCNc1nc(Nc2ccc(P3(=O)CCN(C(C)=O)CC3)cc2OC)nc2[nH]cc(Cl)c12 [Compound 98] |  | < 10 |
| COc1cc(S(C)(=O)=O)ccc1Nc1nc(NC2CCCC2)c2c(Cl)c[nH]c2n1 [Compound 57, 5-chloro-N4-cyclopentyl-N2-(2-methoxy-4-(methylsulfonyl)phenyl)-7H-pyrrolo[2,3-d]pyrimidine-2,4-diamine] |  | 100 to 1000 |

From US12479847B2 (DANA-FARBER CANCER INSTITUTE, INC., priority 2019, dated 2025)
